Test: solvent given as SMILES

SMILES: CCCCCCCCCCCCCCCC[n+]1ccc(/C=C/c2ccccc2O)cc1
- absorption maximum (in C1COCCO1): 558.2 nm
- absorption maximum (in CC(C)=O): 547 nm
- absorption maximum (in CC(C)O): 520.4 nm
- absorption maximum (in CCCCCC): 530.1 nm
- absorption maximum (in CCCCO): 523.4 nm
- absorption maximum (in CCCO): 518.9 nm
- absorption maximum (in CCO): 518.9 nm
- absorption maximum (in CN(C)C=O): 549.1 nm
- absorption maximum (in CO): 503.8 nm
- absorption maximum (in CS(C)=O): 523.4 nm
- absorption maximum (in Cc1ccccc1): 554.2 nm
- absorption maximum (in ClC(Cl)(Cl)Cl): 548.4 nm
- absorption maximum (in ClC(Cl)Cl): 554.2 nm
- absorption maximum (in ClCCl): 553.8 nm
- absorption maximum (in c1ccccc1): 553.7 nm

SMILES: N#Cc1ccc(-c2ccc(C3=CCCCC3)s2)s1
- absorption maximum (in C1CCOC1): 366 nm
- absorption maximum (in CC#N): 366 nm
- absorption maximum (in CCCCCC): 366 nm
- absorption maximum (in CCO): 366 nm
- absorption maximum (in OCCOCCO): 366 nm
- absorption maximum (in c1ccncc1): 369 nm

SMILES: CCC1(CC)c2ccccc2-c2c1c1c(c3c2C(CC)(CC)c2cc(/C=C/c4cccs4)ccc2-3)C(CC)(CC)c2cc(/C=C/c3cccs3)ccc2-1
- absorption maximum (in C1CCOC1): 382 nm

SMILES: N#Cc1cc(/C=C/c2ccc(N(c3ccccc3)c3ccccc3)cc2)ccc1/C=C/c1ccc(/C=C/c2ccc(N(c3ccccc3)c3ccccc3)cc2)cc1C#N
- absorption maximum (in ClCCl): 447 nm

SMILES: CCCCN1C(=O)c2cccc3c([O-])c(/C=C/c4sc5ccccc5[n+]4CC)cc(c23)C1=O
- absorption maximum (in C1CCOC1): 586.75 nm
- absorption maximum (in CC#N): 564.61 nm
- absorption maximum (in CC(C)=O): 572.49 nm
- absorption maximum (in CCO): 555.68 nm
- absorption maximum (in CO): 545.83 nm
- absorption maximum (in CS(C)=O): 566.81 nm
- absorption maximum (in Cc1ccccc1): 607.26 nm
- absorption maximum (in ClC(Cl)Cl): 589.53 nm
- absorption maximum (in ClCCl): 584.78 nm
- absorption maximum (in O): 489.49 nm

SMILES: O=[N+]([O-])c1ccc(C#Cc2ccc3ccc(C#Cc4ccc([N+](=O)[O-])cc4)cc3c2)cc1
- absorption maximum (in ClCCl): 347 nm

SMILES: O=C(O)c1ccc(-c2nc(-c3ccccc3)c3ccccn23)cc1
- absorption maximum (in CC#N): 372 nm

SMILES: CC[n+]1c(C=C2C(=O)C(C=C3N(C)c4ccccc4C3(C)C)=C2[O-])[se]c2ccccc21
- absorption maximum (in CO): 643 nm
- absorption maximum (in ClC(Cl)Cl): 657 nm
- absorption maximum (in ClCCl): 658 nm

SMILES: CCOC(=O)C(C(=O)OCC)C1=[N+]2C(=C(c3ccc(C)cc3)c3ccc(Cl)n3[B-]2(F)F)C=C1
- absorption maximum (in C1CCCCC1): 514 nm
- absorption maximum (in C1CCOC1): 511 nm
- absorption maximum (in CCOC(C)=O): 509 nm
- absorption maximum (in CO): 508 nm
- absorption maximum (in Cc1ccccc1): 515 nm
- absorption maximum (in ClC(Cl)Cl): 513 nm

SMILES: C=Cc1cc2ccc(OC)cc2oc1=O
- absorption maximum (in CC#N): 333 nm

SMILES: CCCCCCCCCC[n+]1cc2ccc3c[n+](CCCCCCCCCC)cc4ccc(c1)c2c34
- absorption maximum (in CC#N): 418 nm

SMILES: N#Cc1ccc(C#Cc2ccc(C#Cc3ccccc3C#N)cc2C#N)cc1
- absorption maximum (in ClC(Cl)Cl): 340 nm

SMILES: CC1=[N+]2C(=C(c3ccccc3)c3c4ccccc4c(C)n3[B-]2(F)F)c2ccccc21
- absorption maximum (in CC#N): 597 nm

SMILES: CN(C)c1nc(N)nc2c1nc(C#N)n2Cc1ccccc1
- absorption maximum (in C1COCCO1): 334 nm
- absorption maximum (in CC#N): 326 nm
- absorption maximum (in CO): 327 nm
- absorption maximum (in ClCCl): 324 nm

SMILES: CCCCCCC(CCCCCC)N1C(=O)c2cccc3c(-c4ccc(OC)c5cccc(C)c45)ccc(c23)C1=O
- absorption maximum (in CCCCCC): 326.6 nm
- absorption maximum (in CCCCCCCCCCCCCC): 327 nm
- absorption maximum (in CCCCCCCCCCCO): 329 nm
- absorption maximum (in CCCCO): 327.8 nm
- absorption maximum (in CN(C)C=O): 328.8 nm
- absorption maximum (in Cc1ccccc1): 328.8 nm
- absorption maximum (in ClC(Cl)Cl): 329 nm

SMILES: CN(C)c1ccc2cc(C(/C=C/c3cn(C)c4ccccc34)=C(C#N)C#N)c(=O)oc2c1
- absorption maximum (in C1CCOC1): 455 nm
- absorption maximum (in C1COCCO1): 452 nm
- absorption maximum (in CN(C)C=O): 471 nm
- absorption maximum (in CS(C)=O): 477 nm
- absorption maximum (in ClCCl): 461 nm

SMILES: COc1cccc2cc(-c3cc4cccc(OC)c4oc3=O)oc12
- absorption maximum (in CC#N): 352 nm
- absorption maximum (in CCOC(C)=O): 351 nm
- absorption maximum (in CS(C)=O): 359 nm
- absorption maximum (in Cc1ccccc1): 358 nm
- absorption maximum (in O): 363 nm

SMILES: COC(=O)c1c(-c2cc3ccccc3oc2=O)nn(-c2cccc(F)c2)c1C(=O)OC
- absorption maximum (in ClCCl): 323 nm

SMILES: S=C1CCCCC1
- absorption maximum (in CCO): 495 nm

SMILES: CCCC1=Cc2nc1ccc1[nH]c(cc1CCC)c1nc(c(NC(=O)CCCC(=O)O)cc3[nH]c2cc3CCC)C(CCC)=C1
- absorption maximum (in ClCCl): 636 nm

SMILES: CNC(=O)[C@H](C)NC(=O)c1cccc2c1C#Cc1c(NC(=O)[C@@H](NC(C)=O)C(C)C)cccc1OCCCO2
- absorption maximum (in CC#N): 324 nm
- absorption maximum (in ClCCl): 336 nm

SMILES: O=c1oc2ccccc2cc1-c1cn2ccccc2n1
- absorption maximum (in ClC(Cl)Cl): 349 nm

SMILES: CCC12C(=C3C(=C4c5ccc(-c6ccc(C)s6)cc5S(=O)(=O)C41CC)C(F)(F)C(F)(F)C3(F)F)c1ccc(-c3ccc(C)s3)cc1S2(=O)=O (configuration not stated)
- absorption maximum (in C1COCCO1): 506 nm
- absorption maximum (in CC#N): 507 nm
- absorption maximum (in CCCCCC): 489 nm
- absorption maximum (in CCO): 508 nm
- absorption maximum (in CS(C)=O): 525.37 nm
- absorption maximum (in ClC(Cl)(Cl)Cl): 497.35 nm
- absorption maximum (in ClCCl): 507.67 nm

Source: the Deep4Chem optical property database
